Assay results as given in ChEMBL document CHEMBL5042531, “N-Substituted 5-(1H-Indol-2-yl)-2-methoxyanilines Are Allosteric Inhibitors of the Linoleate Oxygenase Activity of Selected Mammalian ALOX15 Orthologs: Mechanism of Action” (J Med Chem, 2022).
Calls of active or inactive are those of the source. The rule behind the calls is not given here.

Assays:
[1] = biological target: T1, Polyunsaturated fatty acid lipoxygenase ALOX15 (Oryctolagus cuniculus) (UniProt P12530); assay: Selectivity ratio of IC50 for inhibition of wild type rabbit N-terminal His-tagged ALOX15 expressed in Escherichia coli using linoleic acid as substrate to IC50 for inhibition of wild type rabbit N-terminal His-tagged ALOX15 expressed in Escherichia coli using arachidonic acid as substrate
T1 sequence (whole entry): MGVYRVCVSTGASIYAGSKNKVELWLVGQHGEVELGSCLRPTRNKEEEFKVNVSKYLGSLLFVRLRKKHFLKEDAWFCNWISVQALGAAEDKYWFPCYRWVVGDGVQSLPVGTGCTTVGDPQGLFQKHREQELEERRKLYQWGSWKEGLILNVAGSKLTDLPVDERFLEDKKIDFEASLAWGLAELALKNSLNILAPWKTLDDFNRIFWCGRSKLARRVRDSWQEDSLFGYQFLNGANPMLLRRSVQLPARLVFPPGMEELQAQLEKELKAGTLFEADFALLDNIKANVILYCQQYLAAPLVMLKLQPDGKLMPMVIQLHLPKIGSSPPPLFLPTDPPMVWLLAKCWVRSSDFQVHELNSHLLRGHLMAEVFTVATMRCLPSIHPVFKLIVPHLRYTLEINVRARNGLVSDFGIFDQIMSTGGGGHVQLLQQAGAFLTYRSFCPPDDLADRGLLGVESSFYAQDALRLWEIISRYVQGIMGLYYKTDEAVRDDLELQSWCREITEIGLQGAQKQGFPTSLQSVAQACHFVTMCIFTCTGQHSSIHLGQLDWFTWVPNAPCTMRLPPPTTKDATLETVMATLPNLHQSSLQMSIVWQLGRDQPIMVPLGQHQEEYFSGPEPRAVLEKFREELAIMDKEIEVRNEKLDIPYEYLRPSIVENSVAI

[2] = biological target: T2, Polyunsaturated fatty acid lipoxygenase ALOX15 (Oryctolagus cuniculus, UniProt P12530); assay: Inhibition of wild type rabbit N-terminal His-tagged ALOX15 expressed in Escherichia coli using linoleic acid as substrate by spectrophotometric assay
T2 sequence (P12530 whole entry): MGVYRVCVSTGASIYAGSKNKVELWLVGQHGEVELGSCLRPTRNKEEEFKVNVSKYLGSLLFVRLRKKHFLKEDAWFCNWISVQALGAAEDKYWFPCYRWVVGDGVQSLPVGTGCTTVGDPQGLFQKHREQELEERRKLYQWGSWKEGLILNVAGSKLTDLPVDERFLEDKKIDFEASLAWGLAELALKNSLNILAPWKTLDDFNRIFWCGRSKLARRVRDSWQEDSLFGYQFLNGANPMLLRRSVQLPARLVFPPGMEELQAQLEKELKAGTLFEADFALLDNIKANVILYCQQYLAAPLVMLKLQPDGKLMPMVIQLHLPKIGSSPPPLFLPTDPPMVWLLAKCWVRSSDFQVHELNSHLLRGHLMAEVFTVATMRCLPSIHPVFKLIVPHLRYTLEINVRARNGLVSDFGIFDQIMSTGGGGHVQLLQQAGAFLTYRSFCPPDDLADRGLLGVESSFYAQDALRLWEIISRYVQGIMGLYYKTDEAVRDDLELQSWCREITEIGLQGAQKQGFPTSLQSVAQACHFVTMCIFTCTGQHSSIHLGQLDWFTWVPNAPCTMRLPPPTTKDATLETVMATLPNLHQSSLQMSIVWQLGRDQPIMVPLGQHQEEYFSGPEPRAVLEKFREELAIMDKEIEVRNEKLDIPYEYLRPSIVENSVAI

[3] = biological target: T2, Polyunsaturated fatty acid lipoxygenase ALOX15; assay: Inhibition of wild type rabbit N-terminal His-tagged ALOX15 expressed in Escherichia coli using arachidonic acid as substrate by spectrophotometric assay
[4] = biological target: T1, Polyunsaturated fatty acid lipoxygenase ALOX15 (Oryctolagus cuniculus); assay: Selectivity ratio of IC50 for inhibition of wild type Rabbit N-terminal His-tagged ALOX15 expressed in Escherichia coli using linoleic acid as substrate to IC50 for inhibition of wild type rabbit N-terminal His-tagged ALOX15 expressed in Escherichia coli using arachidonic acid as substrate by spectrophotometric assay
[5] = biological target: T1, Polyunsaturated fatty acid lipoxygenase ALOX15 (Oryctolagus cuniculus); assay: Inhibition of wild type rabbit N-terminal His-tagged ALOX15 expressed in Escherichia coli assessed as decrease in Kcat using arachidonic acid as substrate
[6] = biological target: T1, Polyunsaturated fatty acid lipoxygenase ALOX15 (Oryctolagus cuniculus); assay: Inhibition of wild type rabbit N-terminal His-tagged ALOX15 expressed in Escherichia coli assessed as effect on Km using linoleic acid as substrate
[7] = biological target: T1, Polyunsaturated fatty acid lipoxygenase ALOX15 (Oryctolagus cuniculus); assay: Inhibition of wild type rabbit N-terminal His-tagged ALOX15 expressed in Escherichia coli assessed as decrease in Kcat using linoleic acid as substrate
[8] = biological target: T2, Polyunsaturated fatty acid lipoxygenase ALOX15; assay: Non-competitive inhibition of wild type rabbit N-terminal His-tagged ALOX15 expressed in Escherichia coli assessed as inhibition constant using linoleic acid as substrate
Oryctolagus cuniculus [9] = organism: Oryctolagus cuniculus; assay: Effect on rabbit wild type ALOX15 Ile418Ala mutant-mediated product pattern using arachidonic acid as substrate by 4 uM by RP-HPLC analysis
[10] = biological target: T2, Polyunsaturated fatty acid lipoxygenase ALOX15; assay: Mixed mode inhibition of wild type Rabbit N-terminal His-tagged ALOX15 expressed in Escherichia coli assessed as inhibition constant using linoleic acid as substrate
[11] = Inhibition of rabbit N-terminal His-tagged ALOX15 L183E/L192E double mutant expressed in Escherichia coli arachidonic acid as substrate by spectrophotometric assay; design: species or system Oryctolagus cuniculus
[12] = Inhibition of rabbit N-terminal His-tagged ALOX15 L183E/L192E double mutant expressed in Escherichia coli linoleic acid as substrate by spectrophotometric assay; design: species or system Oryctolagus cuniculus
[13] = biological target: T2, Polyunsaturated fatty acid lipoxygenase ALOX15; assay: Mixed mode inhibition of wild type Rabbit N-terminal His-tagged ALOX15 expressed in Escherichia coli assessed as inhibition constant using arachidonic acid as substrate
[14] = biological target: T1, Polyunsaturated fatty acid lipoxygenase ALOX15 (Oryctolagus cuniculus); assay: Effect on rabbit wild type ALOX15-mediated product pattern using arachidonic acid as substrate by 4 uM by RP-HPLC analysis
[15] = biological target: T3, Polyunsaturated fatty acid lipoxygenase ALOX15 (Mus musculus) (UniProt P39654); assay: Inhibition of recombinant mouse N-terminal His-tagged ALOX15 expressed in Escherichia coli Rosetta2(DE3)pLysS at 2 uM using arachidonic acid as substrate by HPLC analysis
T3 sequence (whole entry): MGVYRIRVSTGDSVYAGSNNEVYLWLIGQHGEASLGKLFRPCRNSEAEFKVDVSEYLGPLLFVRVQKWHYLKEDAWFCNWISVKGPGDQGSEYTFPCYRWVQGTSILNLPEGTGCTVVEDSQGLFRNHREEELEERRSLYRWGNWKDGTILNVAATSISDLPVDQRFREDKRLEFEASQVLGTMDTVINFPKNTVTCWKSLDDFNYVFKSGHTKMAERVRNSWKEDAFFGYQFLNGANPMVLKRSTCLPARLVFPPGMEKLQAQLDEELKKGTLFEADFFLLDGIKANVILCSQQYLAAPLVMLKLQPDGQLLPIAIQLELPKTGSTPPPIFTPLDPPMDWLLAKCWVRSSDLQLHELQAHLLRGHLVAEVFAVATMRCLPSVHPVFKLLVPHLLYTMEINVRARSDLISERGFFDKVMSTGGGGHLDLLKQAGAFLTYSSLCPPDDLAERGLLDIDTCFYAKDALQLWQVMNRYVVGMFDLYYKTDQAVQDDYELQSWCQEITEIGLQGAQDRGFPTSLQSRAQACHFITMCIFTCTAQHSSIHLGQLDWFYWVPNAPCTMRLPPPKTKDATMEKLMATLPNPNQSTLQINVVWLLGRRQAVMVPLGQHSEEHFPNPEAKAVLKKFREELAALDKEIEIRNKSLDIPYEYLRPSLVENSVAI

Oryctolagus cuniculus [16] = organism: Oryctolagus cuniculus; assay: Effect on rabbit wild type ALOX15 Ile418Ala mutant-mediated product pattern assessed as reduction in 12-H(p)ETE formation using arachidonic acid as substrate by 4 uM by RP-HPLC analysis
[17] = biological target: T3, Polyunsaturated fatty acid lipoxygenase ALOX15 (Mus musculus); assay: Inhibition of recombinant mouse N-terminal His-tagged ALOX15 expressed in Escherichia coli Rosetta2(DE3)pLysS at 2 uM using linoleic acid as substrate by HPLC analysis
[18] = biological target: T4, Polyunsaturated fatty acid lipoxygenase ALOX15 (Homo sapiens) (UniProt P16050); assay: Selectivity ratio of IC50 for inhibition of recombinant human N-terminal His-tagged ALOX15 expressed in Escherichia coli Rosetta2(DE3)pLysS using linoleic acid as substrate to IC50 for inhibition of recombinant human N-terminal His-tagged ALOX15 expressed in Escherichia coli Rosetta2(DE3)pLysS using arachidonic acid as substrate
T4 sequence (whole entry): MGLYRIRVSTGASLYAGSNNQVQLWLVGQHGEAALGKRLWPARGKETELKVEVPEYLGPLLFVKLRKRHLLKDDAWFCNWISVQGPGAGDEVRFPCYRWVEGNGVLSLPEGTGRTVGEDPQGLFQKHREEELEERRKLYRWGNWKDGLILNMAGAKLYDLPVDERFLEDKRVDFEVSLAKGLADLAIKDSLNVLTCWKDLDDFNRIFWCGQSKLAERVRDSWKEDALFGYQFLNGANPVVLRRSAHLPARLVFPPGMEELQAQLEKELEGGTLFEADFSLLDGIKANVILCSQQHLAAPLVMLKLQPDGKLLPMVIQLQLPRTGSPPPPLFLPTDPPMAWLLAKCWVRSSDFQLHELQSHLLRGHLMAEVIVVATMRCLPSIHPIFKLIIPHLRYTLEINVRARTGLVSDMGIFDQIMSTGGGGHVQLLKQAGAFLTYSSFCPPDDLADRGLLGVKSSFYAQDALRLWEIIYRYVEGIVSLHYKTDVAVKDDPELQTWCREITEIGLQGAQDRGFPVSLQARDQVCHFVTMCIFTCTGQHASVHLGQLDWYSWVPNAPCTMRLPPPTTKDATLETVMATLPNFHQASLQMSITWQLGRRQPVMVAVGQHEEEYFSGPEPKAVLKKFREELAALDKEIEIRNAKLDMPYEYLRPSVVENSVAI

[19] = compound: COc1ccc(-c2cc3cc(F)ccc3[nH]2)cc1NS(=O)(=O)NC(=O)OCC(C)C; assay: Inhibition of wild type Rabbit N-terminal His-tagged ALOX15 expressed in Escherichia coli assessed as effect on Km using arachidonic acid as substrate; conditions: Oryctolagus cuniculus

CCCCCc1ccc(S(=O)(=O)NCCc2c[nH]c3ccccc23)cc1
Ratio IC50 [1]: 0.8

CCCCCCCCOC(=O)NS(=O)(=O)Nc1cc(-c2cc3cc(F)ccc3[nH]2)ccc1OC
IC50 [2]: 47 nM | IC50 [3]: 1080 nM | Ratio IC50 [4]: 0.043

C=CCOC(=O)NS(=O)(=O)Nc1cc(-c2cc3ccccc3[nH]2)ccc1OC
IC50 [2]: 630 nM | IC50 [3]: 43300 nM | Ratio IC50 [4]: 0.014

CCCCc1ccc(S(=O)(=O)NCCc2c(-c3ccc(OC)cc3)[nH]c3ccccc23)cc1
Ratio IC50 [1]: 0.22

CCCCCc1ccc(S(=O)(=O)NCCc2nc(-c3ccccn3)[nH]c2-c2ccc(OC)cc2)cc1
Ratio IC50 [1]: 0.02

COc1ccc(-c2cc3cc(F)ccc3[nH]2)cc1NS(=O)(=O)NC(=O)OCC(C)C
inhibition [5]: Active | IC50 [2]: 420 nM | IC50 [3]: 20800 nM | Activity [6]: Active | Activity [7]: Active | Ki [8]: 290 nM | Ratio IC50 [4]: 0.02

C=CCOC(=O)NS(=O)(=O)Nc1cccc(-c2cc3ccccc3[nH]2)c1
IC50 [2]: 15400 nM | IC50 [3]: > 50000 nM

COc1ccc(-c2cc3ccccc3[nH]2)cc1NS(=O)(=O)NC(=O)OCC(C)C
IC50 [2]: 1450 nM | IC50 [3]: > 50000 nM

CCCCCCCCOC(=O)NS(=O)(=O)Nc1cccc(-c2cc3ccccc3[nH]2)c1
Activity (Oryctolagus cuniculus [9]): inactive | IC50 [2]: 1550 nM | IC50 [3]: 2790 nM | Ki [10]: 790 nM | IC50 [11]: 4950 nM | IC50 [12]: 7020 nM | Ki [8]: 790 nM | Ki [13]: 3130 nM | Ratio IC50 [4]: 0.55 | Activity [14]: inactive

CC(C)COC(=O)NS(=O)(=O)Nc1cccc(-c2cc3ccccc3[nH]2)c1
IC50 [2]: 30000 nM | IC50 [3]: > 50000 nM

CCCCCCCCOC(=O)NS(=O)(=O)Nc1cc(-c2cc3ccccc3[nH]2)ccc1OC
inhibition [5]: Active | Activity [6]: Active | inhibition [15]: inactive | Activity (Oryctolagus cuniculus [16]): Active | Activity [7]: Active | inhibition [17]: inactive | Activity [14]: inactive

COc1ccc(-c2cc3cc(F)c(F)cc3[nH]2)cc1NS(=O)(=O)NC(=O)OCC(C)C
Ratio IC50 [18]: 0.03

C=CCOC(=O)NS(=O)(=O)Nc1cc(-c2cc3cc(F)ccc3[nH]2)ccc1OC
IC50 [2]: 540 nM | IC50 [3]: 23300 nM | Ratio IC50 [4]: 0.023

B1: Polyunsaturated fatty acid lipoxygenase ALOX15 (Oryctolagus cuniculus), P12530 (protein)
chain: MGVYRVCVSTGASIYAGSKNKVELWLVGQHGEVELGSCLRPTRNKEEEFKVNVSKYLGSLLFVRLRKKHFLKEDAWFCNWISVQALGAAEDKYWFPCYRWVVGDGVQSLPVGTGCTTVGDPQGLFQKHREQELEERRKLYQWGSWKEGLILNVAGSKLTDLPVDERFLEDKKIDFEASLAWGLAELALKNSLNILAPWKTLDDFNRIFWCGRSKLARRVRDSWQEDSLFGYQFLNGANPMLLRRSVQLPARLVFPPGMEELQAQLEKELKAGTLFEADFALLDNIKANVILYCQQYLAAPLVMLKLQPDGKLMPMVIQLHLPKIGSSPPPLFLPTDPPMVWLLAKCWVRSSDFQVHELNSHLLRGHLMAEVFTVATMRCLPSIHPVFKLIVPHLRYTLEINVRARNGLVSDFGIFDQIMSTGGGGHVQLLQQAGAFLTYRSFCPPDDLADRGLLGVESSFYAQDALRLWEIISRYVQGIMGLYYKTDEAVRDDLELQSWCREITEIGLQGAQKQGFPTSLQSVAQACHFVTMCIFTCTGQHSSIHLGQLDWFTWVPNAPCTMRLPPPTTKDATLETVMATLPNLHQSSLQMSIVWQLGRDQPIMVPLGQHQEEYFSGPEPRAVLEKFREELAIMDKEIEVRNEKLDIPYEYLRPSIVENSVAI
Km [19]: Active
